Data: PMC6130795 (ACS Omega, 2018)

Target: T1, CDC25B (Homo sapiens, UniProt P30305)
T1 sequence (P30305 431-538 limits assumed): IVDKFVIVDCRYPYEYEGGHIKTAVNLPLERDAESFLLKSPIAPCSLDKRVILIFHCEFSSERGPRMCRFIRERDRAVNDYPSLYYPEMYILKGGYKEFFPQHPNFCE
Experiment: In vitro CDC25B enzyme inhibition assay
Format: biochemical

SMILES: [Na+].[Na+].[Na+].[O]=[V]([O-])([O-])[O-] [Na3VO4]
- CDC25B IC50: 0.13 ± 0.02 µg/mL
